Reference: the supplement of paper PMC11208160

Experiment: recombinant UMI read abundance after kanamycin selection (control-corrected) (log10(CPM+1)); higher = more efficient recombination; extreme values may be limits of the assay; sequences stand for … in AGTGCAGAGAAAATCGGCCAGTTTTCTCTGCCTGCAGTCCGCATGCCGTGGGACCCCTTGGGTTCTAACCTGTTGCCTAGATTTATGCAGCGGACTGCCTTTCTCCCAAAGTGATAAACCGG…AGGTTGGTTTCACT; site = the 11-nt donor
How it was run: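 Each donor and donor-binding-loop pair was tracked by a 12-nt UMI on a plasmid carrying a promoterless kanamycin gene. With a second plasmid supplying a fixed target and T7-inducible IS621 bridge recombinase, the pool was plated in Escherichia coli on IPTG (0.07 mM) plus kanamycin or unselected. Sequencing of recombinant UMIs across the donor–target junction gave counts expressed as log10(CPM+1) after replicate averaging and control-derived scaling.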
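Further: IS621 bridge recombinase in Escherichia coli cells against a fixed T5 target plasmid.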

| Sequence | recombinant UMI read abundance (log10) |
| --- | --- |
| TCAGAATCATGGACCGGTTTTCCCGGTAATCCGTATTTGCG (site TCAGAATCTCG) | 2.57 |
| TCAGATACATGGACCGGTTTTCCCGGTAATCCGTATTTGCG (site TCAGAAACTCG) | 0 |
| TCAGATACATGGACCGGTTTTCCCGGTAATCCGTATTTGCG (site TCAGACACTCG) | 0.812 |
| TCAGATACATGGACCGGTTTTCCCGGTAATCCGTATTTGCG (site TCAGAGACTCG) | 0.00723 |
| TCAGATACATGGACCGGTTTTCCCGGTAATCCGTATTTGCG (site TCAGATACTCG) | 1.33 |
| TCAGCTACATGGACCGGTTTTCCCGGTAATCCGTATTTGAG (site TCAGCTACTCT) | 0.878 |
| TCAGCTCCATGGACCGGTTTTCCCGGTAATCCGTATTTGGC (site TCAGCTCCTGC) | 0.823 |
| TCAGGCGCATGGACCGGTTTTCCCGGTAATCCGTATTTGGT (site TCAGGCGCTAC) | 0.385 |
| TCAGGTCCATGGACCGGTTTTCCCGGTAATCCGTATTTGAT (site TCAGGTCCTAT) | 1.68 |
| TCAGTGTCATGGACCGGTTTTCCCGGTAATCCGTATTTGCT (site TCAGTGTCTAG) | 2.58 |
| TCATAATCATGGACCGGTTTTCCCGGTAATCCGTATTTGCA (site TCATAATCTTG) | 2.3 |
| TCATAATCATGGACCGGTTTTCCCGGTAATCCGTATTTGCA (site TCATACTCTTG) | 0.606 |
| TCATAATCATGGACCGGTTTTCCCGGTAATCCGTATTTGCA (site TCATAGTCTTG) | 1.06 |
| TCATAATCATGGACCGGTTTTCCCGGTAATCCGTATTTGCA (site TCATATTCTTG) | 0.925 |
| TCATACTCATGGACCGGTTTTCCCGGTAATCCGTATTTGAA (site TCATACTCTTA) | 0 |
| TCATACTCATGGACCGGTTTTCCCGGTAATCCGTATTTGAA (site TCATACTCTTC) | 0.0134 |
| TCATACTCATGGACCGGTTTTCCCGGTAATCCGTATTTGAA (site TCATACTCTTG) | 0 |
| TCATACTCATGGACCGGTTTTCCCGGTAATCCGTATTTGAA (site TCATACTCTTT) | 1.72 |
| TCATATTCATGGACCGGTTTTCCCGGTAATCCGTATTTGCA (site TCATAATCTTG) | 1.5 |
| TCATATTCATGGACCGGTTTTCCCGGTAATCCGTATTTGCA (site TCATACTCTTG) | 1.3 |
| TCATATTCATGGACCGGTTTTCCCGGTAATCCGTATTTGCA (site TCATAGTCTTG) | 0.00995 |
| TCATATTCATGGACCGGTTTTCCCGGTAATCCGTATTTGCA (site TCATATTCTTG) | 0.476 |
| TCATCAACATGGACCGGTTTTCCCGGTAATCCGTATTTGGT (site TCATCAACTAC) | 0.0136 |

| Sequence | recombinant UMI read abundance (log10) |
| --- | --- |
| TCATCCTCATGGACCGGTTTTCCCGGTAATCCGTATTTGCA (site TCATACTCTTG) | 0.933 |
| TCATCCTCATGGACCGGTTTTCCCGGTAATCCGTATTTGCA (site TCATCCTCTTG) | 0.741 |
| TCATCCTCATGGACCGGTTTTCCCGGTAATCCGTATTTGCA (site TCATGCTCTTG) | 0.00381 |
| TCATCCTCATGGACCGGTTTTCCCGGTAATCCGTATTTGCA (site TCATTCTCTTG) | 0 |
| TCATCCTCATGGACCGGTTTTCCCGGTAATCCGTATTTGGC (site TCATCCTCTGC) | 0 |
| TCATGCTCATGGACCGGTTTTCCCGGTAATCCGTATTTGCA (site TCATACTCTTG) | 0.466 |
| TCATGCTCATGGACCGGTTTTCCCGGTAATCCGTATTTGCA (site TCATCCTCTTG) | 0 |
| TCATGCTCATGGACCGGTTTTCCCGGTAATCCGTATTTGCA (site TCATGCTCTTG) | 0.764 |
| TCATGCTCATGGACCGGTTTTCCCGGTAATCCGTATTTGCA (site TCATTCTCTTG) | 0 |
| TCCAAATCATGGACCGGTTTTCCCGGTAATCCGTATTTGCC (site TCCAAATCTGG) | 0 |
| TCCAAATCATGGACCGGTTTTCCCGGTAATCCGTATTTGCC (site TCCAACTCTGG) | 0 |
| TCCAAATCATGGACCGGTTTTCCCGGTAATCCGTATTTGCC (site TCCAAGTCTGG) | 0 |
| TCCAAATCATGGACCGGTTTTCCCGGTAATCCGTATTTGCC (site TCCAATTCTGG) | 0 |
| TCCAACGCATGGACCGGTTTTCCCGGTAATCCGTATTTGCG (site TCCAACGCTCG) | 0.0127 |
| TCCAACGCATGGACCGGTTTTCCCGGTAATCCGTATTTGCG (site TCCACCGCTCG) | 0 |
| TCCAACGCATGGACCGGTTTTCCCGGTAATCCGTATTTGCG (site TCCAGCGCTCG) | 0 |
| TCCAACGCATGGACCGGTTTTCCCGGTAATCCGTATTTGCG (site TCCATCGCTCG) | 0.00881 |
| TCCAAGGCATGGACCGGTTTTCCCGGTAATCCGTATTTGTC (site TCCAAGGCTGA) | 0 |
| TCCAATGCATGGACCGGTTTTCCCGGTAATCCGTATTTGCC (site TCCAATACTGG) | 0 |
| TCCAATGCATGGACCGGTTTTCCCGGTAATCCGTATTTGCC (site TCCAATCCTGG) | 0 |
| TCCAATGCATGGACCGGTTTTCCCGGTAATCCGTATTTGCC (site TCCAATGCTGG) | 0 |
| TCCAATGCATGGACCGGTTTTCCCGGTAATCCGTATTTGCC (site TCCAATTCTGG) | 0 |
| TCCAATTCATGGACCGGTTTTCCCGGTAATCCGTATTTGCA (site TCCAATTCTAG) | 0 |

| Sequence | recombinant UMI read abundance (log10) |
| --- | --- |
| TCCAATTCATGGACCGGTTTTCCCGGTAATCCGTATTTGCA (site TCCAATTCTCG) | 0 |
| TCCAATTCATGGACCGGTTTTCCCGGTAATCCGTATTTGCA (site TCCAATTCTGG) | 0 |
| TCCAATTCATGGACCGGTTTTCCCGGTAATCCGTATTTGCA (site TCCAATTCTTG) | 0 |
| TCCAATTCATGGACCGGTTTTCCCGGTAATCCGTATTTGCG (site TCCAATTCTAG) | 0 |
| TCCAATTCATGGACCGGTTTTCCCGGTAATCCGTATTTGCG (site TCCAATTCTCG) | 0 |
| TCCAATTCATGGACCGGTTTTCCCGGTAATCCGTATTTGCG (site TCCAATTCTGG) | 0 |
| TCCAATTCATGGACCGGTTTTCCCGGTAATCCGTATTTGCG (site TCCAATTCTTG) | 0 |
| TCCACCACATGGACCGGTTTTCCCGGTAATCCGTATTTGCG (site TCCACCACTCG) | 0.0102 |
| TCCACCACATGGACCGGTTTTCCCGGTAATCCGTATTTGCG (site TCCACCCCTCG) | 0.0154 |
| TCCACCACATGGACCGGTTTTCCCGGTAATCCGTATTTGCG (site TCCACCGCTCG) | 0 |
| TCCACCACATGGACCGGTTTTCCCGGTAATCCGTATTTGCG (site TCCACCTCTCG) | 0.00608 |
| TCCACCGCATGGACCGGTTTTCCCGGTAATCCGTATTTGCG (site ACCACCGCTCG) | 0.0347 |
| TCCACCGCATGGACCGGTTTTCCCGGTAATCCGTATTTGCG (site CCCACCGCTCG) | 0.0205 |
| TCCACCGCATGGACCGGTTTTCCCGGTAATCCGTATTTGCG (site GCCACCGCTCG) | 0.0147 |
| TCCACCGCATGGACCGGTTTTCCCGGTAATCCGTATTTGCG (site TACACCGCTCG) | 0.0145 |
| TCCACCGCATGGACCGGTTTTCCCGGTAATCCGTATTTGCG (site TCAACCGCTCG) | 0.00833 |
| TCCACCGCATGGACCGGTTTTCCCGGTAATCCGTATTTGCG (site TCCAACGCTCG) | 0 |
| TCCACCGCATGGACCGGTTTTCCCGGTAATCCGTATTTGCG (site TCCACAGCTCG) | 0.00578 |
| TCCACCGCATGGACCGGTTTTCCCGGTAATCCGTATTTGCG (site TCCACCACTCG) | 0.00973 |
| TCCACCGCATGGACCGGTTTTCCCGGTAATCCGTATTTGCG (site TCCACCCCTCG) | 0.0195 |
| TCCACCGCATGGACCGGTTTTCCCGGTAATCCGTATTTGCG (site TCCACCGCTAG) | 0.00776 |
| TCCACCGCATGGACCGGTTTTCCCGGTAATCCGTATTTGCG (site TCCACCGCTCA) | 0.0193 |
